Data reported in PMC11965660, “Isobavachalcone ameliorates Alzheimer disease pathology by autophagy-mediated clearance of amyloid beta and inhibition of NLRP3 inflammasome in primary astrocytes and 5x-FAD mice” (Frontiers in Pharmacology, 2025).

Legend:
5x-FAD mice = assay: Radial arm maze test; assay type: in vivo; conditions: for Latency to first entry to baited arm: 5x-FAD mice
Excerpt: (§1) Hemizygous 5x-FAD transgenic mice (B6.Cg-Tg(APPSwFlLon, PSEN1*M146L*L286V) 6799Vas/Mmjax; MMRRC Strain: 034848-JAX) on congenic C57BL/6J genetic background were used for experiments. The 5x-FAD mice were genotyped using APP-specific qPCR probes to detect the transgene as per the protocol of Jackson Laboratory. Six months old 5x-FAD mice were randomly divided into three groups (n = 5), based on their body weights, with three males and two females in each group. We used mixed-cohort of males and females for our study to exclude any gender biased effect of IBC. Also, AD symptoms are more pronounced in females than in males ([Aggarwal and Mielke, 2023]), making it possible that males and females respond differently to the drug and treatment. Considering this, it is important to show effect of IBC on both sexes. At this age, Aβ deposition and neuroinflammation has already progressed in these mice. We have used IBC as a curative drug rather than a preventive drug. Prior to the initiation of the study, all the animals were acclimatized for 1 week under standard laboratory conditions; animals were drug naive with no prior procedures performed. All testing were performed from 1 to 4 p.m. IBC was orally (OD) given to two groups at different doses, 25 mg/kg (1% DMSO, 2% Tween 80, 19% PEG200, and 78% distilled water) and 50 mg/kg (1% DMSO, 5% Tween 80, 19% PEG200% and 75% distilled water) using oral gavage. 5x-FAD control mice were administered with vehicle (1% DMSO, 5% Tween 80, 19% PEG200% and 75% distilled water). For behavioral and Immunohistochemistry assays, experimenters were blinded to animal identity while carrying out the procedures.
To check the effect of IBC on the behavior of 5x-FAD mice, open field test (OFT), rotarod (Make; Ugo Basile, rota-rod for mice 7650) and radial arm maze (Make; Ugo Basile) tests were performed. All behavioral assays and testing were performed by an experimenter blinded to the treatment groups. To check the effect of IBC on motor coordination and balancing rotarod test was performed. After acclimatizing mice with rotarod for 5 days, their latency to fall was calculated on the day of analysis. The given final values are the mean of three independent attempts of each mouse. OFT was performed to assess exploratory and locomotor activity in a white box (45 × 60 cm). Distance traveled, speed, time spent in corner and center zones and mobile episodes were recorded through an automated video tracking system using AnyMaze software. To check the effect of IBC on the spatial memory of mice, the eight-armed radial arm maze test was done. The mice were acclimatized to the maze for 5 days before the experiment. Each mouse was trained to navigate the maze for five consecutive days. The mouse was placed on the end of one arm (entry arm). For spatial memory assessment, a food reward (100 mg of butter cookies) was placed in the selected arm, which was considered as […]. The movement of mice was tracked with the help of automated AnyMaze software connected with a tracking camera and various memory retention parameters were assessed.

5x-FAD mice hippocampus = assay: Immunoblotting of autophagy, NLRP3 inflammasome and neuroinflammation proteins in hippocampus; assay type: in vivo; conditions: 25 and 50 mg/kg
Experimental: Cellular lysates were prepared using radio immuno precipitation assay (RIPA) buffer for protein analysis. Briefly, the cell pellet was dissolved in RIPA buffer containing sodium fluoride, sodium orthovanadate, phenyl methyl sulfonyl fluoride (PMSF) and 1% protease inhibitor cocktail for 1 h with vertexing sample every 15 min. The supernatant was collected after high-speed centrifugation of samples for 20 min at 4°C. For analysis of proteins in mice hippocampi, the hippocampi isolated from mice brains was immediately washed with saline and stored in liquid nitrogen. For lysates preparation, tissue was homogenized in RIPA buffer substituted with sodium fluoride, sodium orthovanadate, phenyl methyl sulfonyl fluoride and 1% protease inhibitor cocktail. Total protein was measured using Bradford assay. Proteins were separated using SDS-PAGE and then transferred from gel to PVDF membrane. The protein of interest was labeled with a specific primary antibody overnight at 4°C. Further, the blot was incubated with corresponding HRP-conjugated secondary antibody for 1 h at room temperature. The band were visualized in the Genaxy Chemi Doc imaging system (Make: Syngene, Maryland, USA; Model: G: BOX, XT-4). Densitometry analysis of all the immunoblots was performed by using ImageJ software. Band density of proteins was normalized with β-actin. The phosphorylated proteins were normalized with their total forms.
as §1

GFAP = assay: Immunohistochemistry of GFAP in hippocampus; assay type: in vivo, 5x-FAD mice; conditions: 25 and 50 mg/kg, vs 5x-FAD control
Excerpt: as §1, with “IBC was orally (OD) given to two groups at different doses, 25 mg/kg (1% DMSO, 2% Tween 80, 19% PEG200, and 78% distilled water) and 50 mg/kg (1% DMSO, 5% Tween 80, 19% PEG200% and 75% distilled water) using oral gavage. 5x-FAD control mice were administered with vehicle (1% DMSO, 5% Tween 80, 19% PEG200% and 75% distilled water). For behavioral and Immunohistochemistry assays, experimenters were blinded to animal identity while carrying out the procedures.” left out
Mice’s hippocampus tissue was fixed in 10% formalin. […] Images were taken in a CQ1 high throughput imaging system and analyzed using cell pathfinder software.

[1] = 25 and 50 mg/kg oral, vs 5x-FAD control

`CC(C)=CCc1c(O)ccc(C(=O)/C=C/c2ccc(O)cc2)c1O` [IBC, isobavachalcone] was tested, and the “Latency to first entry to baited arm” value (5x-FAD mice; 25 mg/kg oral) was 16.58 s, the “Latency to first entry to baited arm” value (5x-FAD mice; 50 mg/kg oral) was 14.36 s and the Baited arm time (5x-FAD mice; [1]) was “significantly longer time”. For the same molecule, the “Distance traveled to find the baited arm” value (5x-FAD mice; [1]) was “significantly less distance”, the “Entries to non-baited arm” value (5x-FAD mice; [1]) was “smaller number of entries” and the “GFAP expression (western blot)” value (5x-FAD mice hippocampus) was “decreased expression”. The ASC level (5x-FAD mice hippocampus; western blot) was “significant abrogation”, the ATG7 expression (5x-FAD mice hippocampus; western blot) was “increased expression” and the CASP1 level (5x-FAD mice hippocampus; western blot) was “significant abrogation”. The IBA1 expression (5x-FAD mice hippocampus; western blot) was “decreased expression”, the SQSTM1 expression (5x-FAD mice hippocampus; western blot) was “significantly decreased” and the “cleavage of IL-1β” value (5x-FAD mice hippocampus; western blot) was “reduced cleavage”. The pAMPK expression (5x-FAD mice hippocampus; western blot) was “increased expression” and the “GFAP expression (IHC)” value (GFAP) was “significantly reduced”.
